Assay results reported in patent publication US6551605B2, “Diesters or polyesters of naphthalene dicarboxylic acid as solubilizer/stabilizer for retinoids” (Haarmann & Reimer, priority 2001, dated 2003).
Converted amounts (≈) assume the structure as drawn.

Tests used:
[1] = tested on: skin; details: topical, 0.1% versus 0.025%; cited from earlier work
[2] = tested on: skin; details: topical, 0.1% versus 0.025%; cited from earlier work; remark: listed apart in the source
[3] = Solubility of retinoids in diethylhexyl 2,6-naphthalate (HallBrite TQ); type: physicochemical; details: organic solvent or mixture, read-out: solubility in diethylhexyl diester of 2,6-naphthalene-dicarboxylic acid
Method: Retinoids are lipophilic. […] For example, isotretinoin is soluble in the diethylhexyl diester of 2,6-naphthalene-dicarboxylic acid (diethylhexyl 2,6-naphthalate, HallBrite TQ, C. P. Hall) at approximately 6.7 mg/ml, and tretinoin is soluble in the same diester at approximately 5.6 mg/ml.

[4] = cited from earlier work
[5] = cited from earlier work; remark: listed apart in the source

| SMILES | degree of irritation [1] | therapeutic effectiveness [2] | solubility [3] | stability of aqueous solutions ([4]; aqueous solutions) | stability of solutions in pure organic solvents ([4]; pure organic solvents, stored in the dark) | solubility in chloroform ([5]; chloroform) | solubility in dimethyl sulfoxide ([5]; dimethyl sulfoxide) | solubility in ether ([5]; ether) | solubility in methylene chloride ([5]; methylene chloride) | solubility in water ([5]; water) |
| --- | --- | --- | --- | --- | --- | --- | --- | --- | --- | --- |
| CC1=C(/C=C/C(C)=C/C=C/C(C)=C\C(=O)O)C(C)(C)CCC1 [isotretinoin, 13-cis-retinoic acid] | more irritating | more effective | ~6700 µg/mL (≈ 22.3 mM) | – | – | – | – | – | – | – |
| CC1=C(/C=C/C(C)=C/C=C/C(C)=C/C(=O)O)C(C)(C)CCC1 [tretinoin, all-trans-retinoic acid] | – | – | ~5600 µg/mL (≈ 18.6 mM) | deteriorate quickly | stable | slightly soluble | 40 mg/mL (≈ 133 mM) | sparingly soluble | soluble | practically insoluble |
